Laboratory results: patent publication US12594292B2, “Antiviral prodrugs, intermediate-and long-acting formulations and methods” (priority 2022, dated 2026)
Where two headings read alike, the source gives them in different places.

What was measured:
human PBMCs = experiment: Cytotoxicity (CC50) in human PBMCs; type: cell-based
HFF cells = experiment: Persistence of TFVpp in HFF cells after a 3 day exposure
Text: HFF cells were exposed to 1 micromolar drug for 3 days. At days 0, 1, 2, 4, 7, 14, 21, and 28, cells were trypsinized, counted, and processed for LC/MS measurement of TFVpp. Data were expressed at ftg/cell. nm=not meaningful; ftg—gemtogram.

HIV-1 [1] = settings: for EC50: HIV infected human PBMCs
Experimental: (§1) Antiviral activities were determined in HIV infected human PBMCs.

Calu 3 = experiment: Antiviral evaluation of cyanobenzyl analogs, Calu 3; type: cell-based; settings: Calu 3
Huh7.5 = experiment: Antiviral evaluation of cyanobenzyl analogs, Huh7.5; type: cell-based
[2] = Cytotoxicity (CC50) in human PBMCs; type: cell-based; settings: human PBMCs
HIV-1 [3] = experiment: microbe, parasite or virus in culture; settings: Human immunodeficiency virus 1, PBMC
Experimental: as §1

HCoV-229E = type: cell-based, human Coronavirus 229E
SARS-CoV-2 [4] = experiment: SARS-CoV-2 infection assay in Huh7.5 cells, nucleocapsid immunofluorescence (Example 6); type: cell-based; settings: MOI 0.1, 48 hours
Huh7.5 cells = experiment: Cytotoxicity in Huh7.5 cells, nuclei count (Example 6); type: cell-based, human; settings: Huh7.5 cells; read-out: CC50
SARS-CoV-2 [5] = experiment: SARS-CoV-2 infection assay in TMPRSS2-Vero cells, nucleocapsid immunofluorescence (Example 6); type: cell-based; settings: MOI 0.01, 32 hours
TMPRSS2-Vero cells = experiment: Cytotoxicity in TMPRSS2-Vero cells, nuclei count (Example 6); type: cell-based; settings: TMPRSS2-Vero cells; read-out: CC50
SRV A2 strain of RSV = experiment: RSV infection in Hep-2 cells, CPE reduction; type: cell-based, respiratory syncytial virus; settings: RSV A2 in Hep-2 cells, 72 to 96 hours
Experimental: Methods: The SRV A2 strain of RSV was obtained from the ATCC. Ten thousand Hep-2 cells were seeded into each well of a 96-well plate in EMEM with 10% fetal bovine serum and 1% penicillin and streptomycin. Each well was inoculated with 100 TCID50 of virus. Two hours later wells were washed once with medium and serial four-fold dilutions of candidate antiviral drugs were added.

Hep-2 cells = experiment: Cell viability assay for the RSV table (CC50); type: cell-based; settings: Hep-2 cells; read-out: CC50
Calu-3 cells = experiment: Cytotoxicity in Calu-3 cells, nuclei count or CellTiter-Glo (Example 6); settings: for select compounds up to 100 μM by CellTiter-Glo
Experimental: After which an equal volume of CellTiter-Glo reagent (Cat. #G7570, Promega, Madison, WI) was added, mixed and luminescence recorded on a Veritas Microplate Luminometer (Turner BioSystems) according to manufacturer recommendations.

[6] = variation of the diester substituent of ODE-TFV
[7] = variation of the diester substituent of ODE-TFV, read-out: CC50
[8] = HFF cells, 1 micromolar drug for 3 days

Structure (SMILES): CCCCCCCCCCCCCCCCCCOCCOP(=O)(CO[C@H](C)Cn1cnc2c(N)ncnc21)OCc1ccc(C)cc1 (some centres unmarked) [ODE-4MeBN-TFV]
- CC50 (human PBMCs): 3410 nM
- T1/2 of TFVpp (HFF cells): 3.1
- Tmax of TFVpp (HFF cells): 0 h
- Selectivity Index (HIV-1 [1]; [6]): 1620
- EC50 (HIV-1 [1]; [6]): 2.1 nM

Structure (SMILES): CCCCCCCCCCCCCCCCCCOC[C@H](COP(=O)(O)OC[C@H]1O[C@@](C#N)(c2ccc3c(N)ncnn23)[C@@H](O)C1O)OCc1ccc(C#N)cc1 (some centres unmarked) [OD(4-CN-Bn)G-P-RVn, 1-O-Octadecyl-2-O-(4-cyanobenzyl)-sn-glyceryl-phospho-RVn]
- SI (Calu 3): 1400
- EC50 (Calu 3; read-out: EC50): 43 ± 13 nM
- EC90 (Calu 3; read-out: EC90): 82 ± 22 nM
- SI (Huh7.5): 1966
- EC50 (Huh7.5; read-out: EC50): 24 ± 2 nM
- EC90 (Huh7.5; read-out: EC90): 70 ± 10 nM

Structure (SMILES): CCCCCCCC/C=C\CCCCCCCCOCCOP(=O)(O)CO[C@H](C)Cn1cnc2c(N)nc(N)nc21 [OLE-PMPDAP, Oleyloxyethyl 9-(R)-[(2-phosphonomethoxy)propyl]-2,6-diaminopurine]
- CC50 [2]: 15000 ± 12300 nM
- Selectivity Index (HIV-1 [1]; CC50/EC50): 150,000
- EC50 (HIV-1 [3]): 0.1 ± 0.03 nM

Structure (SMILES): CCCCCCCCCCCCCCCCCCOCCOP(=O)(CO[C@H](C)Cn1cnc2c(N)ncnc21)OC (some centres unmarked) [ODE-Me-TFV]
- CC50 (human PBMCs; [7]): 2980 nM
- Cmax of TFVpp (HFF cells; [8]): 9.3 ftg/cell
- T1/2 of TFVpp (HFF cells; [8]): 2.0
- T1/10 of TFVpp (HFF cells; [8]): 11.3
- Tmax of TFVpp (HFF cells; [8]): 0 h
- Selectivity Index (HIV-1 [1]; [6]): 677
- EC50 (HIV-1 [1]; [6]): 5.2 nM

Structure (SMILES): CCCCCCCCCCCCCCCCCCOCCOP(=O)(OCc1ccccc1)OC[C@H]1O[C@@H](n2cc(F)c(N)nc2=O)CS1 (some centres unmarked) [ODE-Bn-P-Emtricitabine, Octadecyloxyethyl benzyl-phospho-emtricitabine]
- CC50 [2]: 54700 ± 45300 nM
- Selectivity Index (HIV-1 [1]; CC50/EC50): 2989
- EC50 (HIV-1 [3]): 18.3 ± 8.7 nM

Structure (SMILES): CCCCCCCCCCCCCCCCCCOCCOP(=O)(CO[C@H](C)Cn1cnc2c(N)ncnc21)Oc1ccccc1 (some centres unmarked) [ODE-Ph-TFV]
- CC50 (human PBMCs; [7]): 3930 nM
- Cmax of TFVpp (HFF cells; [8]): 8.1 ftg/cell
- T1/2 of TFVpp (HFF cells; [8]): 3.0
- T1/10 of TFVpp (HFF cells; [8]): 15.1
- Tmax of TFVpp (HFF cells; [8]): 24 h
- Selectivity Index (HIV-1 [1]; [6]): 1640
- EC50 (HIV-1 [1]; [6]): 2.4 nM

Structure (SMILES): CCCCCCCC/C=C\CCCCCCCCOC[C@H](COP(=O)(O)OC[C@H]1O[C@@](C#N)(c2ccc3c(N)ncnn23)[C@H](O)[C@@H]1O)OCc1ccc(OC)c(F)c1 [Compound 15m, 1-O-Oleyl-2-O-(3-fluoro, 4-methoxybenzyl)-sn-glyceryl-phospho-RVn]
- EC50 (HCoV-229E): 60 ± 14 nM
- EC90 (HCoV-229E): 110 ± 20 nM
- EC50 (SARS-CoV-2 [4]): 54 nM
- EC90 (SARS-CoV-2 [4]): 102 nM
- CC50 (Huh7.5 cells): > 20000 nM
- EC50 (SARS-CoV-2 [5]): 296 nM
- EC90 (SARS-CoV-2 [5]): 524 nM
- CC50 (TMPRSS2-Vero cells): > 20000 nM
- EC50 (SRV A2 strain of RSV): 5 nM
- EC90 (SRV A2 strain of RSV): 9.4 nM
- CC50 (Hep-2 cells): 12500 nM
- CC50 (MRC-5 cells): > 50000 nM
- CC50 (Calu-3 cells): 58500 ± 6280 nM
